Laboratory results from patent US12186309B2, “RNA virus inhibitor compounds and uses thereof” (The Governors of the University of Alberta, priority 2021, dated 2025).
Like-named read-outs stand apart in the source and are kept apart here.

Experiments:
SARS-CoV-2 = SARS-CoV-2 plaque reduction assay in Vero E6 cells; assay type: cell-based; details: read-out: SARS-CoV-2 Antiviral EC50
in vitro = assay type: cell-based
Protocol: Cell viability was measured using the CellTiter-Glo luminescent cell viability assay (Promega). Separately A549 (human lung epithelial) cells and VeroE6 cells were seeded at 5×10^3 cells/well in 96-well plates and incubated overnight before treatment. Compounds were solubilized in DMSO and added to cells in an eight-point four-fold serial dilution (200 μM to 0.0122 μM). Cells were incubated in the presence of compounds for 24 hours before addition of the luminescence substrate and measurement of ATP activity according to manufacturer's instructions. The percentage of viable cells was calculated relative to cells treated with solvent alone (0.5% DMSO).

SARS-CoV-2 3CLP = SARS-CoV-2 3CLP (Severe acute respiratory syndrome coronavirus 2 (2019-nCoV) (SARS-CoV-2), UniProt P0DTD1); experiment: SARS-CoV-2 3CLP inhibition FRET assay; assay type: biochemical; details: 80 nM SARS-CoV-2 3CLP, 100 μM FRET substrate, pH 7.8, 37° C., 10 min preincubation; read-out: 3CL Protease IC50
[1] = Severe acute respiratory syndrome coronavirus 2, Vero C1008, 48 h
[2] = Severe acute respiratory syndrome coronavirus 2, Vero C1008, Vero E6 cells, SARS-CoV-2/CANADA/VIDO 01/2020, MOI 0.0001 pfu/cell, plaques counted after 48 h

SMILES	EC50 (SARS-CoV-2; [1]) [µM]	CC50 at 24 h (in vitro; African green monkey) [µM]	CC50 at 24 h (in vitro; human) [µM]	EC50 (SARS-CoV-2; [2]) [µM]	IC50 (SARS-CoV-2 3CLP) [µM]
[2H]C1([2H])CC[C@@H](C[C@@H](C#N)NC(=O)[C@@H]2[C@@H]3[C@H](CN2C(=O)[C@@H](NC(=O)C(F)F)C(C)(C)C)C3(C)C)C(=O)N1 [Compound 24, (1R,2S,5S)—N-{(1S)-1-cyano-2-[(3S)-2-oxo(6,6-^2H2)piperidin-3-yl]ethyl}-3-[N-(difluoroacetyl)-3-methyl-L-valyl]-6,6-dimethyl-3-azabicyclo[3.1.0]hexane-2-carboxamide]	< 5	> 200	> 200		
CC(C)(C)[C@H](NC(=O)C(F)F)C(=O)N1C[C@H]2[C@@H]([C@H]1C(=O)N[C@H](C#N)C[C@@H]1CCCNC1=O)C2(C)C [Compound 20, (1R,2S,5S)—N-{(1S)-1-cyano-2-[(3S)-2-oxopiperidin-3-yl]ethyl}-3-[N-(difluoroacetyl)-3-methyl-L-valyl]-6,6-dimethyl-3-azabicyclo[3.1.0]hexane-2-carboxamide]	< 5	> 200	> 200		
CC(C)C[C@@H](C(=O)N[C@H](C#N)C[C@@H]1CCCNC1=O)N1C(=O)CC(C)(C)C1=O [Compound 2, (2S)—N-{(1S)-1-cyano-2-[(3S)-2-oxopiperidin-3-yl]ethyl}-2-(3,3-dimethyl-2,5-dioxopyrrolidin-1-yl)-4-methylpentanamide]				> 10	10.7
CC(C)C[C@@H](C(=O)N[C@H](C#N)C[C@@H]1CCCNC1=O)N1C(=O)C[C@H](c2ccccc2)C1=O [Compound 5, (2S)—N-{(1S)-1-cyano-2-[(3S)-2-oxopiperidin-3-yl]ethyl}-2-[(3R)-2,5-dioxo-3-phenylpyrrolidin-1-yl]-4-methylpentanamide]				> 10	6.9
CC(C)C[C@@H](C(=O)N[C@H](C#N)C[C@@H]1CCCNC1=O)n1cccc(NC(=O)OC(C)(C)C)c1=O [Compound 7, tert-butyl {1-[(2S)-1-({(1S)-1-cyano-2-[(3S)-2-oxopiperidin-3-yl]ethyl}amino)-4-methyl-1-oxopentan-2-yl]-2-oxo-1,2-dihydropyridin-3-yl}carbamate]				< 10	
CC(C)C[C@@H](C(=O)N[C@H](C#N)C[C@@H]1CCCNC1=O)N1C(=O)c2ccccc2C1=O [Compound 1, (2S)—N-{(1S)-1-cyano-2-[(3S)-2-oxopiperidin-3-yl]ethyl}-2-(1,3-dioxo-1,3-dihydro-2H-isoindol-2-yl)-4-methylpentanamide]				> 10	8.5
